Measurements taken from ChEMBL document CHEMBL1629699, “Cell wall thickening is not a universal accompaniment of the daptomycin nonsusceptibility phenotype in Staphylococcus aureus: evidence for multiple resistance mechanisms” (Antimicrob Agents Chemother, 2010).
Converted amounts (≈) assume the structure as drawn.

Assays:
Staphylococcus aureus [1] = assay: AUC in methicillin-resistant sStaphylococcus aureus 11/11; details: in vitro population analysis
Staphylococcus aureus [2] = assay: Antimicrobial activity against Staphylococcus aureus BMC1002 by Etest; assay type: functional
Staphylococcus aureus [3] = assay: Antimicrobial activity against Staphylococcus aureus CB1482 after 24 hrs by plate reader analysis; details: CB1482, 24 h
Staphylococcus aureus [4] = assay: Antimicrobial activity against Staphylococcus aureus CB5053 by Etest
Staphylococcus aureus [5] = assay: Antimicrobial activity against Staphylococcus aureus CB5036 by Etest; assay type: functional
Staphylococcus aureus [6] = assay: Antimicrobial activity against Staphylococcus aureus CB5035 by Etest; assay type: functional
Staphylococcus aureus [7] = assay: Antimicrobial activity against Staphylococcus aureus CB5054 by Etest; assay type: functional
Staphylococcus aureus [8] = assay: Antimicrobial activity against Staphylococcus aureus CB184 after 24 hrs by Etest; details: CB184, 24 h
Staphylococcus aureus [9] = assay: Antimicrobial activity against Staphylococcus aureus BMC1001 by Etest
Cell membrane [10] = assay: Binding affinity to daptomycin-resistant Staphylococcus aureus REF2145 cell membrane assessed as amount of compound bound at 6 ug after 10 mins
Cell membrane [11] = assay: Binding affinity to methicillin-susceptible Staphylococcus aureus 11/11 cell membrane assessed as amount of compound bound at 6 ug after 10 mins
Cell membrane [12] = assay: Binding affinity to methicillin-susceptible Staphylococcus aureus 11/11 cell membrane assessed as amount of compound bound at 8 ug after 10 mins
Cell membrane [13] = assay: Binding affinity to daptomycin-resistant Staphylococcus aureus REF2145 cell membrane assessed as amount of compound bound at 8 ug after 10 mins

| Compound | AUC (Staphylococcus aureus [1]) | MIC (Staphylococcus aureus [2]) | MIC (Staphylococcus aureus [3]) | MIC (Staphylococcus aureus [4]) | MIC (Staphylococcus aureus [5]) | MIC (Staphylococcus aureus [6]) | MIC (Staphylococcus aureus [7]) | MIC (Staphylococcus aureus [8]) | MIC (Staphylococcus aureus [9]) | Activity (Cell membrane [10]) | Activity (Cell membrane [11]) | Activity (Cell membrane [12]) | Activity (Cell membrane [13]) |
| --- | --- | --- | --- | --- | --- | --- | --- | --- | --- | --- | --- | --- | --- |
| CCCCCCCCCC(=O)N[C@@H](Cc1c[nH]c2ccccc12)C(=O)N[C@H](CC(N)=O)C(=O)N[C@@H](CC(=O)O)C(=O)N[C@@H]1C(=O)NCC(=O)N[C@@H](CCCN)C(=O)N[C@@H](CC(=O)O)C(=O)N[C@H](C)C(=O)N[C@@H](CC(=O)O)C(=O)NCC(=O)N[C@H](CO)C(=O)N[C@@H]([C@H](C)CC(=O)O)C(=O)N[C@@H](CC(=O)c2ccccc2N)C(=O)O[C@@H]1C | 8.41 µg/mL | 2 mg/L (≈ 1.23 µM) | 0.5 mg/L (≈ 0.309 µM) | 0.5 mg/L (≈ 0.309 µM) | 2 mg/L (≈ 1.23 µM) | 0.38 mg/L (≈ 0.234 µM) | 2 mg/L (≈ 1.23 µM) | 4 mg/L (≈ 2.47 µM) | 0.5 mg/L (≈ 0.309 µM) | 0.79 µg/mL | 2.03 µg/mL | – | – |
| CN[C@H](CC(C)C)C(=O)N[C@H]1C(=O)N[C@@H](CC(N)=O)C(=O)N[C@H]2C(=O)N[C@H]3C(=O)N[C@H](C(=O)N[C@H](C(=O)O)c4cc(O)cc(O)c4-c4cc3ccc4O)[C@H](O)c3ccc(c(Cl)c3)Oc3cc2cc(c3O[C@@H]2O[C@H](CO)[C@@H](O)[C@H](O)[C@H]2O[C@H]2C[C@](C)(N)[C@H](O)[C@H](C)O2)Oc2ccc(cc2Cl)[C@H]1O [VANCOMYCIN] | 5.96 µg/mL | – | – | – | – | – | – | – | – | – | – | 1.81 µg/mL | 1.78 µg/mL |
